From patent publication US20220025336A1, “METHOD FOR PRODUCING INSULIN-PRODUCING CELLS, AND COMPOSITION” (KATAOKA CORPORATION, priority 2018, published 2022)

How the values were obtained:
human fibroblasts = test: Direct induction from human fibroblasts into insulin-producing cells; amount of insulin secreted; assay type: cell-based
Excerpt: (§1) The insulin-producing cell produced by the present invention process can be detected, identified, and isolated using, for example, a morphological change of a cell, a characteristic property of an insulin-producing cell, or a specific marker (e.g., an anti-insulin antibody). Moreover, the secretory capacity of the obtained insulin-producing cell can also be evaluated by quantifying the amount of secreted insulin using sandwich ELISA.
The human fibroblasts used as the material were purchased from DS Pharma Biomedical Co., Ltd. The fibroblasts are derived from human skin.
Human fibroblasts were seeded in 35-mm dishes coated with gelatin (Cat#: 190-15805, manufactured by Wako Pure Chemical Industries, Ltd.) at 5×10^4 cells/dish, and cultured in DMEM medium (manufactured by Gibco) supplemented with 10% fetal bovine serum (FBS), 100 U/mL penicillin, and 100 μg/mL streptomycin until confluent under conditions of 37° C. and 5% CO2. Note that DMEM refers to Dulbecco's Modified Eagle's Medium.
The medium of dishes of the human fibroblasts described above was replaced with the differentiation induction medium described below.
Differentiation induction medium: Advanced DMEM/F-12 (Cat#: 12634010; manufactured by Gibco) supplemented with ITS-X (Cat#: 51500056, manufactured by Gibco), non-essential amino acids (NEAA; Cat#: 11140050, manufactured by Gibco), Glutamine (manufactured by Gibco; final concentration: 2 mmol/L), Nicotinamide (Cat#: 72340-10OG, manufactured by Sigma-Aldrich; final concentration: 10 mmol/L), Exendin-4 (Cat#: av120214, manufactured by Abcam; final concentration: 100 ng/mL), 100 U/mL penicillin, 100 μg/mL streptomycin, insulin, and low molecular weight compounds described below, with or without addition of 10% fetal bovine serum (FBS, manufactured by Hyclone).
Subsequently, the cells were cultured under conditions of 37° C. and 5% CO2 while the medium was changed to the medium of the same composition every three days. […]

[1] = system: human adipose tissue-derived mesenchymal stem cells (AdMSC); test: Direct induction from human adipose tissue-derived mesenchymal stem cells (AdMSC) into insulin-producing cells; amount of insulin secreted; assay type: cell-based; settings: FIG. 5; 120 μg/mL insulin; cultured 14 days
Excerpt: as §1
Human mesenchymal stem cells isolated from adipose tissue were purchased from Takara Bio Co., Ltd.
Human mesenchymal stem cells were seeded in 35-mm dishes coated with gelatin (Cat#: 190-15805, manufactured by Wako Pure Chemical Industries, Ltd.) at 5×10^4 cells/dish, and cultured in Mesenchymal Stem Cell Growth Medium 2 (Cat#: C-28009; manufactured by Takara Bio Co., Ltd.) supplemented with 100 U/mL penicillin and 100 μg/mL streptomycin until the cells were almost confluent under conditions of 37° C. and 5% CO2.
The medium of dishes of the human mesenchymal stem cells described above was replaced with the differentiation induction medium described below. […]

| Molecule | insulin secretion / secretory capacity of induced cells by combination of low molecular weight compounds (human fibroblasts; FIG. 4, 3C (CHIR99021, BRD7389, forskolin) without BRD7389, or with BI-D1870 5 μM or 10 μM instead of BRD7389, no LY294002, 14 days) | amount of insulin secreted with a high concentration of insulin in the differentiation induction medium [1] | increase of the amount of insulin secretion by induction with a high concentration of insulin (human fibroblasts; FIG. 2, 120 μg/mL vs 20 μg/mL insulin in differentiation induction medium, cultured 14 days) | amount of insulin secreted as a function of insulin concentration in the differentiation induction medium (human fibroblasts; FIG. 3, insulin up to 100 μg/mL, cultured 14 days) |
| --- | --- | --- | --- | --- |
| CC(C)CCN1c2nc(Nc3cc(F)c(O)c(F)c3)ncc2N(C)C(=O)C1C (stereo not shown) [BI-D1870, reference compound] | insulin-producing cells with a higher secretory capacity were also obtained |  |  |  |
| insulin: Human recombinant insulin (Cat#: 093-06351; Wako) added to the differentiation induction medium |  | increased markedly | about 3 times | the greater was the amount of insulin secreted |
